From patent US20130338152A1, “FLUOROPHENYL BICYCLIC HETEROARYL COMPOUNDS” (IRM LLC, priority 2011, published 2013) come the findings set out here.

Assay [1] has as its target PDGFRa (Homo sapiens, UniProt P16234). Nature of the assay: Enzymatic kinase assay. It is filed as biochemical. As for the experimental part:
(§1) Two methods were used to analyze phosphorylated peptides and proteins produced by the listed tyrosine and serine/threonine-specific protein kinases: either using a filter-binding assay (FB), or using a flashplate assay (FP). The activities of protein kinases were assayed in the presence or absence of inhibitors, by measuring the incorporation of ^33P from [γ^33P]ATP into appropriate substrates.
(§2) 96-well polypropylene microplates were used to assay the activity in the FB mode. To determine the inhibitory activity of compounds 10 μL of compound dilutions were pipetted into 96-well plates followed by the addition of 10 μL of assay mix and 10 μL of individual enzymes. With the addition of the enzymes the reactions were initiated and continued at RT. […] The final concentration of DMSO in the enzyme assays was 1%.
(§3) Flashplates are available as 96-well standard (STFPs) or as streptavidin-(SAFPs) or nickel coated FPs (NiFPs) from Perkin Elmer. STFPs are 96-well polystyrene microplates in which the interior of each well is permanently coated with a thin layer of polystyrene-based scintillant. Streptavidin flashplates (SAFP) are 96 or 384-well STFPs coated with streptavidin. SAFPs are suitable for a wide variety of assay applications which utilize biotinylated capture molecules. NiFP or nickel chelate flashplates are 96- or 384-well STFPs coated with nickel chelate. NiFPs are designed for in-plate, radiometric assays which utilize 4- or 6-histidine tagged proteins and peptides.
(§4) All kinase assays were performed in STFPs for 60 mins at RT and stopped with 50 μL of 0.5% H3PO4 except PKA which were carried out in polypropylene 96- and 384-well plates, respectively. […] All wells were then washed three times with 200 μL of 0.5% H3PO4 and the plates were dried at room temperature. The plates were sealed and counted in a microplate scintillation counter (TopCount NXT, TopCount NXT HTS). The final concentration of DMSO in the enzyme assays was 1%.

Assay [2] has as its target cKIT (Homo sapiens, UniProt P10721). Briefly: Enzymatic kinase assay. It is filed as biochemical. Here is the method: as §1, §2, §3, §4
In assay [3] the target is MK2 (Homo sapiens, UniProt P49137). Nature of the assay: Enzymatic kinase assay. It is filed as biochemical. As for the experimental part: as §1, §2, §3, §4
MK2, sequence (P49137 whole entry, species assumed): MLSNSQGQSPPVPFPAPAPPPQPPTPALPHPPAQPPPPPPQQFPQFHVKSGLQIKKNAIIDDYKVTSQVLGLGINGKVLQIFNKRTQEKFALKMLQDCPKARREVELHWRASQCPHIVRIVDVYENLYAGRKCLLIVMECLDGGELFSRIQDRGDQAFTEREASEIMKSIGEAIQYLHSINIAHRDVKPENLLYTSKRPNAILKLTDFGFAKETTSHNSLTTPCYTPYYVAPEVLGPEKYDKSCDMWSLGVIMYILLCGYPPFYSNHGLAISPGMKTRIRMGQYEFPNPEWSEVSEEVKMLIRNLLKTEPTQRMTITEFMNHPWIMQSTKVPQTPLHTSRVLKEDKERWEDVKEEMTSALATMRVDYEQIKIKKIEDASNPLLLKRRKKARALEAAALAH
The target in assay [4] is JAK2 (Homo sapiens, UniProt O60674). Briefly: Enzymatic kinase assay. It is filed as biochemical. Here is the method: as §1, §2, §3, §4
Assay [5] has as its target cMET (Homo sapiens, UniProt P08581). Nature of the assay: Enzymatic kinase assay. It is filed as biochemical. Here is the method: as §1, §2, §3, §4
Assay [6] deals with RET (Homo sapiens, UniProt P07949). Nature of the assay: Enzymatic kinase assay. The class given is biochemical. The note with it: enzymatic; read-out: RET IC50 values (converted). Here is the method:
as §1, §2, §3, §4

The target in assay [7] is HER2 (Homo sapiens, UniProt P04626). Briefly: Enzymatic kinase assay. It is filed as biochemical. Here is the method: as §1, §2, §3, §4
For assay [8], the target named is FGFR-4 (Homo sapiens, UniProt P22455). Briefly: Enzymatic kinase assay. It is filed as biochemical. Here is the method: as §1, §2, §3, §4
The target of assay [9] is EphA4 (Homo sapiens, UniProt P54764). Briefly: Enzymatic kinase assay. It is filed as biochemical. As for the experimental part:
as §1, §2, §3, §4

For assay [10], the target named is ERK2 (Homo sapiens, UniProt P28482). Briefly: Enzymatic kinase assay. The class given is biochemical. Here is the method:
as §1, §2, §3, §4

Assay [11] concerns the target TYK2 (Homo sapiens, UniProt P29597). Briefly: Enzymatic kinase assay. It is filed as biochemical. Here is the method: as §1, §2, §3, §4
Assay [12] concerns the target CDK2A (Homo sapiens, UniProt P24941). Nature of the assay: Enzymatic kinase assay. The class given is biochemical. As for the experimental part: as §1, §2, §3, §4
Assay [13] concerns the target LCK (Homo sapiens, UniProt P06239). Nature of the assay: Enzymatic kinase assay. The class given is biochemical. As for the experimental part: as §1, §2, §3, §4
The target of assay [14] is cABLT315 (Homo sapiens, UniProt P00519, T315I). Briefly: Enzymatic kinase assay. The class given is biochemical. Here is the method:
as §1, §2, §3, §4

The target in assay [15] is T1, Aurora A (Homo sapiens, UniProt O14965).
T1 sequence (O14965 1-403): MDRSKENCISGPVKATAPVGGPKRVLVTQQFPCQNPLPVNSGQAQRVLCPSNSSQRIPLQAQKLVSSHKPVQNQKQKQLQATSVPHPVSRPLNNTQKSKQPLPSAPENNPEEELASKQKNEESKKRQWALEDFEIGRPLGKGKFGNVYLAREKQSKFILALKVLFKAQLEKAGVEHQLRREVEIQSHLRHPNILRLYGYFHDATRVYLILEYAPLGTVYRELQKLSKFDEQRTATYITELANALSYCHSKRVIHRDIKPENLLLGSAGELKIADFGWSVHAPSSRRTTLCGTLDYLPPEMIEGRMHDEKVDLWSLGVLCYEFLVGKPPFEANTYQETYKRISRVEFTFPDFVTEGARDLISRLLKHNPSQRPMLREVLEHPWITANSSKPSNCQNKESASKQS
Briefly: Enzymatic kinase assay. It is filed as biochemical. As for the experimental part: as §1, §2, §3, §4

For assay [16], the target named is KDR (Homo sapiens, UniProt P35968). Nature of the assay: Enzymatic kinase assay. The class given is biochemical. Here is the method: as §1, §2, §3, §4
The target of assay [17] is GSK3beta (Homo sapiens, UniProt P49841). Briefly: Enzymatic kinase assay. It is filed as biochemical. As for the experimental part: as §1, §2, §3, §4
GSK3beta, sequence (P49841 whole entry, species assumed): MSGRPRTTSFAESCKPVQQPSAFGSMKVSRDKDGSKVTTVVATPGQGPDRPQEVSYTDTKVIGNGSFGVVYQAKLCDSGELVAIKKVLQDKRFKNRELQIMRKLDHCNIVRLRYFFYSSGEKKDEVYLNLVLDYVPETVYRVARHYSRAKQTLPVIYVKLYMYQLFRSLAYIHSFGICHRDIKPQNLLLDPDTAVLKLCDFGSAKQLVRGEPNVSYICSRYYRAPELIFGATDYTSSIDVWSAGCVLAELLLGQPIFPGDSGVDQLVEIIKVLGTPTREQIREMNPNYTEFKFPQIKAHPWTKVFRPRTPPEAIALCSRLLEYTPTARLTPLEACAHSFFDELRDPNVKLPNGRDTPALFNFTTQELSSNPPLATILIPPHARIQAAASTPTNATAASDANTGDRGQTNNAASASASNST
Assay [18] addresses COT1 (Homo sapiens, UniProt P41279). Briefly: Enzymatic kinase assay. It is filed as biochemical. As for the experimental part: as §1, §2, §3, §4
Assay [19] addresses P38a (Homo sapiens, UniProt Q16539). Nature of the assay: Enzymatic kinase assay. The class given is biochemical. Here is the method:
as §1, §2, §3, §4

Assay [20] has as its target T2, IGF1R (Homo sapiens, UniProt P08069). Nature of the assay: Enzymatic kinase assay (filter-binding/flashplate). The class given is biochemical. Here is the method:
as §1, §2, §3, §4

Assay [21] addresses InsR (Homo sapiens, UniProt P06213). Briefly: Enzymatic kinase assay (filter-binding/flashplate). It is filed as biochemical. The note with it: enzymatic; read-out: InsR IC50 values. As for the experimental part:
as §1, §2, §3, §4

Assay [22] has as its target T2, IGF1R. Nature of the assay: Cellular IGF-1R assay: inhibition of IGF1R phosphorylation in Hek293 cells, capture ELISA (MSD). It is filed as cell-based. On the set-up: expressed in transfected cells; host or cells: Hek293 (Hek293-IGF1R). The following applies: IGF-triggered receptor phosphorylation. As for the experimental part:
IVa. Cellular IGF-1R and InsR Assays
Compound-mediated inhibition of IGF1R and INSR phosphorylation in Hek293 cells transduced with the corresponding receptors is assessed in a capture ELISA format using the MSD (Meso Scale Discovery) platform. Briefly, 30′000 cells washed and diluted in starvation medium (DMEM high glucose supplemented with 0.1% BSA) are seeded in 90 μL per well into 96-well plates pre-coated with poly-D-lysine (0.1 mg/mL in PBS/O). After 24 h incubation at 37° C. and 5% CO2, dose-response effects are determined with 3-fold serial compound dilutions, starting at 10 μM. The final vehicle concentration is 0.1% DMSO in all wells. Following pre-incubation with compounds for 1 h, receptor phosphorylation is triggered by a 10 min exposure to 1.0 ng/μL IGF for Hek293-IGF1R cells, and 5.0 ng/μL insulin for Hek293-InsR cells. Cell lysis is achieved by addition of 80 μL MSD lysis buffer per aspirated well, incubation on ice for 20 min, and a freeze-thaw cycle. Target phosphorylation is then assessed by transferring volumes corresponding to approx. 6 μg Hek293-IGF1R or 0.6 μg Hek293-InsR lysates to MSD assay plates pre-coated with total-IGF1R or total-InsR Abs, respectively. […] Immune complexes are detected by a SULFO-Tag™-coupled anti-rabbit IgG antibody in the presence of 150 μL MSD read-buffer. Light emission at 620 nm triggered by application of electric current is recorded on a MSD Sectorlmager 6000. Acquired raw data (mean Ru-ECL units) are processed in an Excel analysis template. The plate blank (MSD lysis buffer) is subtracted from all data points. The effect of a particular test compound concentration on receptor phosphorylation is expressed relative to the window defined by ligand-stimulated vs unstimulated control cells (set as 100%). IC50 values [nM] are determined using 4-parametric curve-fitting (XLfit software, V4.3.2).

Assay [23] addresses hERG channels (Homo sapiens, UniProt Q12809). Nature of the assay: biochemical.

Structures are written as SMILES.

ERK2, sequence (P28482 whole entry, species assumed): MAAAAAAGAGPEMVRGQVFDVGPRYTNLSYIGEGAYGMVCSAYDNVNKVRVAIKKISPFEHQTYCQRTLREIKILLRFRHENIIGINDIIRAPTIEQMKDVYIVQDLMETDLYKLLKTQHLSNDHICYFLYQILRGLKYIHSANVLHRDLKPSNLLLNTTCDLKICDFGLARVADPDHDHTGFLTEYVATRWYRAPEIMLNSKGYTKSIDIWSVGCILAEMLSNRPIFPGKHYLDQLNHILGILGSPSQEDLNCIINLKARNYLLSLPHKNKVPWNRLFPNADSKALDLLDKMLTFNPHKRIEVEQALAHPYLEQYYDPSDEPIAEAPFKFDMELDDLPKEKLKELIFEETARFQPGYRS
TYK2, sequence (P29597 whole entry, species assumed): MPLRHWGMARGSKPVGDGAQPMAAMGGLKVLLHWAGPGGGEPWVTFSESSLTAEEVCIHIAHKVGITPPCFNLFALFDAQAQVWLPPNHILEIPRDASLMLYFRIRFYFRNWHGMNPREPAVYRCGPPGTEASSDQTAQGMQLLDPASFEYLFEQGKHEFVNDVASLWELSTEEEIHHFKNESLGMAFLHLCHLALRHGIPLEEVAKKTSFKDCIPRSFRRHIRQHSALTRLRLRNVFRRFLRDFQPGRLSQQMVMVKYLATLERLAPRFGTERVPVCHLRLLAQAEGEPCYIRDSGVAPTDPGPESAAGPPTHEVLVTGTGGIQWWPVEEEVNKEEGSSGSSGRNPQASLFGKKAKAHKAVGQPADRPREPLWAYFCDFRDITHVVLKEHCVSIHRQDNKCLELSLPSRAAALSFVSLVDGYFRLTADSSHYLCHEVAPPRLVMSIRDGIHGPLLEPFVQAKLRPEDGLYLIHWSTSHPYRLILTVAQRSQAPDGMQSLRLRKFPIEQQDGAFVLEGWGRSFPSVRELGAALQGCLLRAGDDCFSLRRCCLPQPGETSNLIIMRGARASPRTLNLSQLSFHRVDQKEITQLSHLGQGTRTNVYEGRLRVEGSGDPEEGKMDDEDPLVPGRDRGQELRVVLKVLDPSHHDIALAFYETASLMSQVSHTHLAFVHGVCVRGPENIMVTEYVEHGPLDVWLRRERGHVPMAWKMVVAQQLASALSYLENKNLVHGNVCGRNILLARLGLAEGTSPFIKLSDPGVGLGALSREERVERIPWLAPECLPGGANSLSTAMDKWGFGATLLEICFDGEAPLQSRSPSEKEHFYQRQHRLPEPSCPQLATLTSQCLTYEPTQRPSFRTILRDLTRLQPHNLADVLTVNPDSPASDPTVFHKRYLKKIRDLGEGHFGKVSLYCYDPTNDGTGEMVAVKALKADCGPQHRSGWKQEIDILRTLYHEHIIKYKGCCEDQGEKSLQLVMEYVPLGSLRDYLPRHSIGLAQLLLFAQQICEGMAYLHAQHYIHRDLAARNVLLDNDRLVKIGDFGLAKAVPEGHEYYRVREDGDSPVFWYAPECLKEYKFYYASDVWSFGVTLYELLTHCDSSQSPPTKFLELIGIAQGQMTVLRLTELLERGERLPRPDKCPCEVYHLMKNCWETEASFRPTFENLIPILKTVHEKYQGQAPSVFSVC
T2 sequence (P08069 31-1367): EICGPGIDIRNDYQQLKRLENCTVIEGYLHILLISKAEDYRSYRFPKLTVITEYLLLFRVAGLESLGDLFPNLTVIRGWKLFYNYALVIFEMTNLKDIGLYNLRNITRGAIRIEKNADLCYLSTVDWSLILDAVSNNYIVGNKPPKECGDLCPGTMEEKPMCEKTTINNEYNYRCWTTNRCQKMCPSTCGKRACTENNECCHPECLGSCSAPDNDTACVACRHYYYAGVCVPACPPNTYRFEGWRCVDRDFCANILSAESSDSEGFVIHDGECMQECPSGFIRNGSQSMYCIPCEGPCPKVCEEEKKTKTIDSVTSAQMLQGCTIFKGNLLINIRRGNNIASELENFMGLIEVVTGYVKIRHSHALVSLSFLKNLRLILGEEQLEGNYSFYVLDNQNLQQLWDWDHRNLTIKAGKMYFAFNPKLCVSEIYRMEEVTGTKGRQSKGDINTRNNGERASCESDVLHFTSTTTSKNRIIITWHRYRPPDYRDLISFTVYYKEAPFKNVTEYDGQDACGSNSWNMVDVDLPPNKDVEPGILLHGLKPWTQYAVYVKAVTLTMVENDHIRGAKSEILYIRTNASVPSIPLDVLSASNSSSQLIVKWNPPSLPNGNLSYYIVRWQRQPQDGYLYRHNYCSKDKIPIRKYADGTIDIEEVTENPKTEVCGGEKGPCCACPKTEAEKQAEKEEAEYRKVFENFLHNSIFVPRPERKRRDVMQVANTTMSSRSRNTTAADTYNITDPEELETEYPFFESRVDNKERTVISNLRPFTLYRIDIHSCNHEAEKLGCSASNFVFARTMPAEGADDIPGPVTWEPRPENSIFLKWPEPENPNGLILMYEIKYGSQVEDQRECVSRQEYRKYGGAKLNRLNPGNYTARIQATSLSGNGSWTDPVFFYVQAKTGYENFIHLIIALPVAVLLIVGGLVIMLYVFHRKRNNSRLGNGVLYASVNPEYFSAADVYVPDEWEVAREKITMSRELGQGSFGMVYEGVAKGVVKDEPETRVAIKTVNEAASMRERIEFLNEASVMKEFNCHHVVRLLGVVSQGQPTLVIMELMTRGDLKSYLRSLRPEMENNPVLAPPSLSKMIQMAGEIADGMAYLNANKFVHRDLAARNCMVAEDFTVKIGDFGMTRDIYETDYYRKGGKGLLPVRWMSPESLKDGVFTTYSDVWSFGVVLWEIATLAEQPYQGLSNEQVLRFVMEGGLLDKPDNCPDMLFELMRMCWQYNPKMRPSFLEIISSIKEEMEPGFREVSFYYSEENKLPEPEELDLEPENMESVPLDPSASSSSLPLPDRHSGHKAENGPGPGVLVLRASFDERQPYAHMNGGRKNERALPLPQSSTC
RET, sequence (P07949 29-1114, species assumed): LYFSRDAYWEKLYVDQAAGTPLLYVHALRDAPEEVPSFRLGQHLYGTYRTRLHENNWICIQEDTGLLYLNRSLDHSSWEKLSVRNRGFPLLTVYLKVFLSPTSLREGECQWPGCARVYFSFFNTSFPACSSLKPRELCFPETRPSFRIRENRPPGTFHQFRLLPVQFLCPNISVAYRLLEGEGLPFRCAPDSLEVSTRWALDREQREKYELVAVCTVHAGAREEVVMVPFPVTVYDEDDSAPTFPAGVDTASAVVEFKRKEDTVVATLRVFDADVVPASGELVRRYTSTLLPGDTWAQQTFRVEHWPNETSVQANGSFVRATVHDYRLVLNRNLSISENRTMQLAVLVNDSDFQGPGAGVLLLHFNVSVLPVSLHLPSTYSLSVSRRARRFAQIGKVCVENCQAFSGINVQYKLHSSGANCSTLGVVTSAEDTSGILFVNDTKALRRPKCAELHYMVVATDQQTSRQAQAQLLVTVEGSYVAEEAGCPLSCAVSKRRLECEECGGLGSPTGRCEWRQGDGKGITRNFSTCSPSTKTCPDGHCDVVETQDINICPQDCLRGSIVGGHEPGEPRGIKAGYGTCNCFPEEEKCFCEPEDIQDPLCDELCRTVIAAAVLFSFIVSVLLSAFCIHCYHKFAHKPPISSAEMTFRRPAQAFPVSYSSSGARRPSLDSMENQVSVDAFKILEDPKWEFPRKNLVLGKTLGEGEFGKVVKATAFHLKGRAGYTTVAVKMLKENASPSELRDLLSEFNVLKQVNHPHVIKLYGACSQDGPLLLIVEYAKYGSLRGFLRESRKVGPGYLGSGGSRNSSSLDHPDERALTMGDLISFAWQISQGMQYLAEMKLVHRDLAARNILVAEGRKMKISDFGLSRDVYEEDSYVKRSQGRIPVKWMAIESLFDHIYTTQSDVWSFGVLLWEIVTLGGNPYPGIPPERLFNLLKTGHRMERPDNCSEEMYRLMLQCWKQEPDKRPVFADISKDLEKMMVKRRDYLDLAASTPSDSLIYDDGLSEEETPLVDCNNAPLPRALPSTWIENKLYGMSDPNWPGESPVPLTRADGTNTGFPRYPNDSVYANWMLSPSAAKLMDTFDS

One may read the IC50 as the concentration at which inhibition is half-maximal. `Nc1ncnc2c1c(-c1cccc(OCC3CCCO3)c1F)cn2[C@H]1C[C@@H](CN2CCS(=O)(=O)CC2)C1` (mixture of isomers) [Example 1, 7-[3-(1,1-Dioxo-1-thiomorpholin-4-ylmethyl)-cyclobutyl]-5-[2-fluoro-3-(tetrahydro-furan-2-ylmethoxy)-phenyl]-7H-pyrrolo[2,3-d]pyrimidin-4-ylamine]: the half-maximal inhibitory concentration (IC50) in [1] is 6.3 µM; in assay [2], above 10 µM; in assay [3] it was above 10 µM; in [4] it was above 10 µM; in [5], above 10 µM; in assay [6] it was 2 µM. The IC50 in assay [7], in assay [8], in assay [9], in assay [10], in [11] and in assay [12] was above 10 µM throughout. Moreover, the 50% inhibitory concentration (IC50) was above 10 µM in [13]; above 10 µM in assay [14]; 7 µM in assay [15]; 2.4 µM in assay [16]; above 10 µM in assay [17]; above 10 µM in assay [18]. For the same molecule, the half-maximal inhibitory concentration (IC50) in assay [19] is above 10 µM; in assay [20], 0.0042 µM; in assay [21], 0.038 µM; in [22], 0.005 µM.

On to `Nc1ncnc2c1c(-c1cc(OCC34CCC(CC3)O4)ccc1F)cn2[C@H]1C[C@@H](N2CC[S+]([O-])CC2)C1` (relative stereo) [Example 34, 5-[2-Fluoro-5-(7-oxa-bicyclo[2.2.1]hept-1-ylmethoxy)-phenyl]-7-[cis-3-(1-oxo-thiomorpholin-4-yl)-cyclobutyl]-7H-pyrrolo[2,3-d]pyrimidin-4-ylamine], for which the IC50 in [1], in assay [2], in assay [3], in [4], in assay [5] and in assay [6] was above 10 µM each time. The IC50 in [7], in assay [8], in [9], in [10], in assay [11] and in assay [12] was above 10 µM in each case. Further, the IC50 in [13], in assay [14], in assay [15], in assay [16], in assay [17] and in assay [18] was above 10 µM in each case. For the same molecule, the results for the IC50 in assay [19], in assay [20] and in assay [21] were above 10 µM, 0.0084 µM and 0.075 µM, respectively.

Turning to `[2H]C1([2H])C([2H])([2H])C2(COc3ccc(F)c(-c4cn([C@H]5C[C@@H](N6CCN(C(C)=O)CC6)C5)c5ncnc(N)c45)c3)OC1([2H])C([2H])([2H])C2([2H])[2H]` [Example 10, d9-1-[4-(cis-3-{4-Amino-5-[2-fluoro-5-(7-oxa-bicyclo[2.2.1]hept-1-ylmethoxy)-phenyl]-pyrrolo[2,3-d]pyrimidin-7-yl}-cyclobutyl)-piperazin-1-yl]-ethanone], the half-maximal inhibitory concentration (IC50) was above 10 µM in assay [1]; above 10 µM in [2]; above 10 µM in assay [3]; above 10 µM in assay [4]; above 10 µM in [5]; 6.4 µM in assay [6]. For the same molecule, the half-inhibitory concentration (IC50) in assay [7], in [8], in assay [9], in assay [10], in assay [11] and in assay [12] was above 10 µM throughout. Moreover, the concentration for half-maximal inhibition (IC50) was 6.6 µM in [13]; above 10 µM in assay [14]; above 10 µM in assay [15]; above 10 µM in [16]; above 10 µM in assay [17]; above 10 µM in [18]. The results for the 50% inhibitory concentration (IC50) in assay [19], in [23] and in assay [21] were above 10 µM, 6.8 µM and 0.081 µM, respectively.

In the case of `C[C@]1(O)C[C@@H](c2nc(-c3ccc4ccc(-c5ccccc5)nc4c3)c3c(N)nccn32)C1` [Linsitinib, reference compound], the 50% inhibitory concentration (IC50) in assay [1] is above 10 µM; in [2], above 10 µM; in [8], above 10 µM; in [9] it was above 10 µM; in [18], above 10 µM; in assay [23], 2.65 µM.
